Our source for the IC50 values is patent publication US20240116910A1, “Heterocycles as WIP1 Inhibitors” (PMV Pharmaceuticals, Inc., priority 2022, published 2024).

What is called IC50 is the concentration that inhibits the measured activity by half.

In the assay the target is recombinant His-tag Wip1(2-420) protein (amino acids #2-420) (Homo sapiens (Human), UniProt O15297). The experiment in a line: Wip1(2-420) phosphatase enzyme FDP assay. The following applies: fluorescein diphosphate (FDP) substrate, RT 2 hours, fluorescence Ex485/Em535; read-out: WIP1 (Truncated 2-420) FDP Assay: IC50. Format: biochemical.
Sequence of recombinant His-tag Wip1(2-420) protein (amino acids #2-420) (O15297 2-420): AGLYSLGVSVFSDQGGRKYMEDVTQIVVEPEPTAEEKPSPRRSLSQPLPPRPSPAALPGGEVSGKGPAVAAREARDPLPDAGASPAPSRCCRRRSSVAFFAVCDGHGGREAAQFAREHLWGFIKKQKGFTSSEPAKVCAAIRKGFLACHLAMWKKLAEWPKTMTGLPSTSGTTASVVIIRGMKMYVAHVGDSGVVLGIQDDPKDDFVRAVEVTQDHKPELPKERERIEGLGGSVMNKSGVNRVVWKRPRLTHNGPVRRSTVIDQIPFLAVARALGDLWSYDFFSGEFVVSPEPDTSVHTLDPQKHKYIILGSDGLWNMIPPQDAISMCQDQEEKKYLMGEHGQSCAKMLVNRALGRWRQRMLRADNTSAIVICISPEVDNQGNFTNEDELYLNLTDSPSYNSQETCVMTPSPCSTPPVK
With `COCCN1CCCc2cc(NC(=O)[C@H](CC3CCCC3)NC(=O)c3ccc([C@H](C)Nc4cc(Cl)cnc4C)s3)ccc21` [Compound 129, (2S)-2-({5-[(1S)-1-[(5-chloro-2-methylpyridin-3-yl)amino]ethyl]thiophen-2-yl}formamido)-3-cyclopentyl-N-[1-(2-methoxyethyl)-1,2,3,4-tetrahydroquinolin-6-yl]propanamide], the IC50 amounted to 7 nM.

Turning to `C[C@@H](c1ccc(C(=O)N[C@@H](CC2CCCC2)C(=O)NC2CC2)s1)N1CCCc2ccc(Cl)cc21` [Compound 248, (2S)-2-({5-[(1S)-1-(7-chloro-1,2,3,4-tetrahydroquinolin-1-yl)ethyl]thiophen-2-yl}formamido)-3-cyclopentyl-N-cyclopropylpropanamide], the half-maximal inhibitory concentration (IC50) amounted to 16 nM.

On to `COc1ccccc1-c1ncc(Cl)cc1N[C@@H](C)c1ccc(C(=O)N[C@@H](CC2CCCC2)C(=O)NC2CC2)s1` [Compound 242, (2S)-2-({5-[(1S)-1-{[5-chloro-2-(2-methoxyphenyl)pyridin-3-yl]amino}ethyl]thiophen-2-yl}formamido)-3-cyclopentyl-N-cyclopropylpropanamide], for which the IC50 came to 7 nM.

On to `C[C@@H](Nc1cc(Cl)cnc1C(=O)O)c1ccc(C(=O)N[C@@H](CC2CCCC2)C(=O)NC2CC2)s1` [Compound 274, 5-chloro-3-{[(1R)-1-(5-{[(1S)-2-cyclopentyl-1-(cyclopropylcarbamoyl)ethyl]carbamoyl}thiophen-2-yl)ethyl]amino}pyridine-2-carboxylic acid], for which the IC50 was 811 nM.

In the case of `Cc1ncc(Cl)cc1N[C@H](c1ccc(C(=O)N[C@@H](CC2CCCC2)C(=O)NC23CC(C2)C3)s1)C(F)(F)F` [Compound 187, (2S)-N-{bicyclo[1.1.1]pentan-1-yl}-2-({5-[(1S)-1-[(5-chloro-2-methylpyridin-3-yl)amino]-2,2,2-trifluoroethyl]thiophen-2-yl}formamido)-3-cyclopentylpropanamide], the IC50 is 37 nM.

`Cc1ncc(Cl)cc1N[C@@H](C)c1ccc(C(=O)N[C@@H](CC23CCC(CC2)CC3)C(=O)NC2CC2)s1` [Compound 256, (2S)-3-{bicyclo[2.2.2]octan-1-yl}-2-({5-[(1S)-1-[(5-chloro-2-methylpyridin-3-yl)amino]ethyl]thiophen-2-yl}formamido)-N-cyclopropylpropanamide]: the IC50 came out at 6 nM.

Turning to `Cc1ncc(Cl)cc1NC(Cc1ccccc1)c1ccc(C(=O)N[C@@H](CC2CCCC2)C(=O)NC23CC(F)(C2)C3)s1` (stereo partly drawn) [Compound 212, (2S)-2-[(5-{1-[(5-chloro-2-methylpyridin-3-yl)amino]-2-phenylethyl}thiophen-2-yl)formamido]-3-cyclopentyl-N-{3-fluorobicyclo[1.1.1]pentan-1-yl}propanamide], the IC50 is 23 nM.

Take `Cc1cc(NC(=O)[C@H](CC2CCCC2)NC(=O)c2ccc(C(C)(C)Nc3cc(Cl)cnc3C)s2)ccn1` [Compound 270, (2S)-2-[(5-{2-[(5-chloro-2-methylpyridin-3-yl)amino]propan-2-yl}thiophen-2-yl)formamido]-3-cyclopentyl-N-(2-methylpyridin-4-yl)propanamide]: the IC50 is 6 nM.

As to `C[C@H](Nc1cc(Cl)cnc1C(F)(F)F)c1ccc(C(=O)N[C@@H](CC2CCCC2)C(=O)NC2CC2)s1` [Compound 189, (2S)-2-({5-[(1S)-1-{[5-chloro-2-(trifluoromethyl)pyridin-3-yl]amino}ethyl]thiophen-2-yl}formamido)-3-cyclopentyl-N-cyclopropylpropanamide], the IC50 worked out at 10 nM.

For `Cc1ncc(Cl)cc1N[C@H](Cc1ccccc1)c1ccc(C(=O)N[C@@H](CC2CCCC2)C(=O)NC23CC(C2)C3)s1` [Compound 215, (2S)-N-{bicyclo[1.1.1]pentan-1-yl}-2-({5-[(1R)-1-[(5-chloro-2-methylpyridin-3-yl)amino]-2-phenylethyl]thiophen-2-yl}formamido)-3-cyclopentylpropanamide], the IC50 was determined as 101 nM.

For the molecule `COC(=O)CNC(=O)[C@H](CC1CCCC1)NC(=O)c1ccc([C@H](C)Nc2cc(Cl)cnc2C)s1` [Compound 91, methyl 2-[(2S)-2-({5-[(1S)-1-[(5-chloro-2-methylpyridin-3-yl)amino]ethyl]thiophen-2-yl}formamido)-3-cyclopentylpropanamido]acetate], the IC50 came to 19 nM.

`Cc1ncc(Cl)cc1N[C@@H](C)c1ccc(C(=O)N[C@@H](CC2CCCC2)C(=O)Nc2ccc3cnccc3c2)s1` [Compound 195, (2S)-2-({5-[(1S)-1-[(5-chloro-2-methylpyridin-3-yl)amino]ethyl]thiophen-2-yl}formamido)-3-cyclopentyl-N-(isoquinolin-6-yl)propanamide]: the IC50 amounted to 3 nM.

For the molecule `Cc1ncc(Cl)cc1N[C@H](Cc1cnn(C)c1)c1ccc(C(=O)N[C@@H](CC2CCCC2)C(=O)NC2CC2)s1` [Compound 170, (2S)-2-({5-[(1R)-1-[(5-chloro-2-methylpyridin-3-yl)amino]-2-(1-methyl-1H-pyrazol-4-yl)ethyl]thiophen-2-yl}formamido)-3-cyclopentyl-N-cyclopropylpropanamide], the IC50 was 217 nM.

For `COc1ncc(Cl)cc1N[C@H](C)c1ccc(C(=O)N[C@@H](CC2CCCC2)C(=O)NC23CC(C2)C3)s1` [Compound 61, (2S)-N-{bicyclo[1.1.1]pentan-1-yl}-2-({5-[(1R)-1-[(5-chloro-2-methoxypyridin-3-yl)amino]ethyl]thiophen-2-yl}formamido)-3-cyclopentylpropanamide], the half-maximal inhibitory concentration (IC50) turned out to be 500 nM.

Take `C[C@@H](c1ccc(C(=O)N[C@@H](CC2CCCC2)C(=O)NC2CC2)s1)N1CCN(C)c2ccc(Cl)cc21` [Compound 239, (2S)-2-({5-[(1S)-1-(7-chloro-4-methyl-1,2,3,4-tetrahydroquinoxalin-1-yl)ethyl]thiophen-2-yl}formamido)-3-cyclopentyl-N-cyclopropylpropanamide]: the IC50 is 38 nM.

On to `Cc1ncc(Cl)cc1N[C@@H](C)c1ccc(C(=O)N[C@@H](CC2CCCC2)C(=O)Nc2cc[nH]n2)s1` [Compound 155, (2S)-2-({5-[(1S)-1-[(5-chloro-2-methylpyridin-3-yl)amino]ethyl]thiophen-2-yl}formamido)-3-cyclopentyl-N-(1H-pyrazol-3-yl)propanamide], for which the IC50 came to 7 nM.

For `C[C@@H](Nc1cc(Cl)cnc1CO)c1ccc(C(=O)N[C@@H](CC2CCCC2)C(=O)NC2CC2)s1` [Compound 106, (2S)-2-({5-[(1R)-1-{[5-chloro-2-(hydroxymethyl)129yridine-3-yl]amino}ethyl]thiophen-2-yl}formamido)-3-cyclopentyl-N-cyclopropylpropanamide], the IC50 was 472 nM.

For `Cc1ncc(Cl)cc1NC(Cc1ccncc1)c1ccc(C(=O)N[C@@H](CC2CCCC2)C(=O)NC2CC2)s1` (stereo partly drawn) [Compound 130, (2S)-2-[(5-{1-[(5-chloro-2-methylpyridin-3-yl)amino]-2-(pyridin-4-yl)ethyl}thiophen-2-yl)formamido]-3-cyclopentyl-N-cyclopropylpropanamide], the IC50 came to 22 nM.

Consider `COc1cnc2ccc(NC(=O)[C@H](CC3CCCC3)NC(=O)c3ccc([C@H](C)Nc4cc(Cl)cnc4C)s3)cc2c1` [Compound 180, (2S)-2-({5-[(1S)-1-[(5-chloro-2-methylpyridin-3-yl)amino]ethyl]thiophen-2-yl}formamido)-3-cyclopentyl-N-(3-methoxyquinolin-6-yl)propanamide], for which the IC50 turned out to be 4 nM.

For the molecule `CC[C@@H](Nc1cc(Cl)cnc1C)c1ccc(C(=O)N[C@@H](CC2CCCC2)C(=O)NC23CC(C2)C3)s1` [Compound 67, (2S)-N-{bicyclo[1.1.1]pentan-1-yl}-2-({5-[(1R)-1-[(5-chloro-2-methylpyridin-3-yl)amino]propyl]thiophen-2-yl}formamido)-3-cyclopentylpropanamide], the IC50 came out at 270 nM.

For the molecule `Cc1ncc(Cl)cc1N[C@@H](C)c1ccc(C(=O)N[C@@H](CC2CCCC2)C(=O)N[C@H]2C[C@@H](C#N)C2)s1` [Compound 221, (2S)-2-({5-[(1S)-1-[(5-chloro-2-methylpyridin-3-yl)amino]ethyl]thiophen-2-yl}formamido)-3-cyclopentyl-N-[(1s,3s)-3-cyanocyclobutyl]propanamide], the IC50 worked out at 6 nM.

With `Cc1ncc(Cl)cc1NC(Cn1cccn1)c1ccc(C(=O)N[C@@H](CC2CCCC2)C(=O)NC2CC2)s1` (stereo partly drawn) [Compound 191, (2S)-2-[(5-{1-[(5-chloro-2-methylpyridin-3-yl)amino]-2-(1H-pyrazol-1-yl)ethyl}thiophen-2-yl)formamido]-3-cyclopentyl-N-cyclopropylpropanamide], the IC50 was 13 nM.

Turning to `C[C@H](c1ccc(C(=O)N[C@@H](CC2CCCC2)C(=O)NC2CC2)s1)N1CCN(C)c2ccc(Cl)cc21` [Compound 240, (2S)-2-({5-[(1R)-1-(7-chloro-4-methyl-1,2,3,4-tetrahydroquinoxalin-1-yl)ethyl]thiophen-2-yl}formamido)-3-cyclopentyl-N-cyclopropylpropanamide], the IC50 was found to be 154 nM.

On to `COc1cccc(-c2ncc(Cl)cc2N[C@H](C)c2ccc(C(=O)N[C@@H](CC3CCCC3)C(=O)NC3CC3)s2)c1` [Compound 268, (2S)-2-({5-[(1R)-1-{[5-chloro-2-(3-methoxyphenyl)pyridin-3-yl]amino}ethyl]thiophen-2-yl}formamido)-3-cyclopentyl-N-cyclopropylpropanamide], for which the IC50 amounted to 482 nM.

Turning to `Cc1ncc(Cl)cc1N[C@H](Cc1ccc(F)cc1)c1ccc(C(=O)N[C@@H](CC2CCCC2)C(=O)NC2CC2)s1` [Compound 222, (2S)-2-({5-[(1R)-1-[(5-chloro-2-methylpyridin-3-yl)amino]-2-(4-fluorophenyl)ethyl]thiophen-2-yl}formamido)-3-cyclopentyl-N-cyclopropylpropanamide], the IC50 amounted to 68 nM.

Regarding `C[C@H](Nc1cc(Cl)cnc1C(N)=O)c1ccc(C(=O)N[C@@H](CC2CCCC2)C(=O)NC2CC2)s1` [Compound 228, 5-chloro-3-{[(1S)-1-(5-{[(1S)-2-cyclopentyl-1-(cyclopropylcarbamoyl)ethyl]carbamoyl}thiophen-2-yl)ethyl]amino}pyridine-2-carboxamide], the IC50 came out at 5 nM.
